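Values below derive from 48-hour exposures of cells grown in 96-well plates, with endpoints linearly interpolated between the two concentrations bracketing the appropriate inhibition level. Here, GI50 denotes the concentration required for 50% inhibition of growth. TGI: total growth inhibition.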
Experiments:
Assay in all cases: inhibition of tumour cell growth, NCI panel, 48 h
SW-620 colon = tested on: SW-620 colon
A498 renal = tested on: A498 renal
SNB-19 CNS = tested on: SNB-19 CNS
COLO 205 colon = tested on: COLO 205 colon
NCI-H226 lung = tested on: NCI-H226 lung
OVCAR-3 ovarian = tested on: OVCAR-3 ovarian
HCC-2998 colon = tested on: HCC-2998 colon
CAKI-1 renal = tested on: CAKI-1 renal
MDA-MB-231 breast = tested on: MDA-MB-231 breast
NCI/ADR-RES ovarian = tested on: NCI/ADR-RES ovarian

| Structure (SMILES) | TGI (SW-620 colon) [µM] | TGI (A498 renal) [µM] | TGI (SNB-19 CNS) [µM] | TGI (COLO 205 colon) [µM] | TGI (NCI-H226 lung) [µM] | TGI (OVCAR-3 ovarian) [µM] | TGI (HCC-2998 colon) [µM] | TGI (CAKI-1 renal) [µM] | GI50 (MDA-MB-231 breast) [µM] | TGI (MDA-MB-231 breast) [µM] | GI50 (SW-620 colon) [µM] | GI50 (NCI-H226 lung) [µM] | GI50 (NCI/ADR-RES ovarian) [µM] | TGI (NCI/ADR-RES ovarian) [µM] | GI50 (OVCAR-3 ovarian) [µM] | GI50 (HCC-2998 colon) [µM] | GI50 (CAKI-1 renal) [µM] | GI50 (SNB-19 CNS) [µM] | GI50 (COLO 205 colon) [µM] | GI50 (A498 renal) [nM] |
| --- | --- | --- | --- | --- | --- | --- | --- | --- | --- | --- | --- | --- | --- | --- | --- | --- | --- | --- | --- | --- |
| COc1cc(OC)c2ssc3c(OC)cc(OC)c4ssc1c2-c43 | > 100 | > 100 | > 100 | > 100 | > 100 | > 100 | > 100 | > 100 |  |  |  |  |  |  |  |  |  |  |  |  |
| O=Cc1ccc(-c2ccc(-c3nc4ccccc4[nH]3)cc2)s1 | > 100 |  |  |  | 82.3 | 54.1 | 81.3 | 57.2 | 45.8 | > 100 | 59.4 | 27.3 | 21.1 | 50.9 | 20.9 | 29.3 | 29.9 |  |  |  |
| CC(C)N(C(=O)C1(C)CC1)C(C)C | > 100 | > 100 | > 100 | > 100 | > 100 | > 100 | > 100 | > 100 |  |  |  |  |  |  |  |  |  |  |  |  |
| COc1ccc2c(c1O)C(=O)C(CCC(=O)O)CC2 (stereo unspecified) | > 100 | > 100 | > 100 | > 100 |  | > 100 | > 100 | > 100 |  |  |  |  |  |  |  |  |  |  |  |  |
| NC(=O)/C(=C\c1ccncc1)c1cccc2ccccc12 | > 100 |  | > 100 | > 100 | 95.2 | > 100 |  | > 100 |  | > 100 |  |  |  | > 100 |  |  |  |  |  |  |
| COc1cc2c(c(OC)c1O)-c1ccc(OC)c(=O)cc1[C@@H](NC(=O)C(F)(F)F)CC2 | > 100 | 2.21 | > 100 | 0.0933 |  | 0.151 | 14.1 | > 100 |  | 0.628 |  |  |  | > 100 |  |  |  |  |  |  |
| CCSC(SCC)c1cc2c(cc1Br)OCO2 | > 100 | 86.7 | > 100 | 59.3 | 81.1 | 57.3 | 67.5 |  |  |  |  |  |  |  |  |  |  |  |  |  |
| C=CCCOC(=O)CO[N+](=O)[O-] | > 100 |  | > 100 | > 100 | > 100 | > 100 | > 100 | > 100 |  |  |  |  |  |  |  |  |  |  |  |  |
| CN(C)CCCNC(=O)c1ccc2oc3cc4ccccc4c(=O)n3c2c1 | > 50 |  | > 50 | > 50 |  | > 50 |  | 36.5 | 16.5 | > 50 | 24.3 |  | > 50 | > 50 | 8.7 |  | 8.31 | > 50 | 29.4 |  |
| C=CCCCn1ccc2ccccc21 | > 100 | > 100 | > 100 | > 100 | > 100 | > 100 | > 100 |  |  |  |  |  |  |  |  |  |  |  |  |  |
| CC(=O)[O-].CC(=O)[O-].O=C(N/N=C/c1cc(Cl)cc(Cl)c1O)c1ccncc1.[Ni+2] | 83.5 | > 100 | > 100 | > 100 | > 100 | 80.8 | > 100 |  |  |  |  |  |  |  |  |  |  |  |  |  |
| COc1ccc(/C=C/C(=O)C(C)(C)CN2CCCCC2)cc1 | 14.2 | 38.5 | > 100 | 30.6 | 45.9 | 34.5 | 33.7 |  |  |  |  |  |  |  |  |  |  |  |  |  |
| Cc1c(-c2ccccc2)c(=O)oc2ccc(Cl)cc12 | > 100 | > 100 | > 100 | > 100 | > 100 | > 100 | > 100 |  |  |  |  |  |  |  |  |  |  |  |  |  |
| CCCCCCCCCCCCCCCCOCC(CN(C)CCN(C)C)OCCCCCCCCCCCCCCCC (stereo unspecified) | > 100 | > 100 | > 100 | > 100 | > 100 | > 100 | > 100 | > 100 |  |  |  |  |  |  |  |  |  |  |  |  |
| CCN(CC)CCCC(C)Nc1cc(-c2ccc(C(F)(F)F)cc2)c(C#N)c2nc3ccccc3n12 (stereo unspecified) | 3.99 | 2.9 | 11.1 |  |  | 3.68 | 3.67 | 12.5 | 1.58 | 3.42 | 1.92 |  | 1.98 | 4.44 | 1.84 | 1.91 | 2.89 | 2.96 |  | 1470 |
| COC(=O)NC1(NC(=O)OC)NC(=O)c2cc(OC)c(OC)cc2N1 | > 100 |  | > 100 | > 100 |  | 67.6 |  | 61.9 |  |  |  |  |  | > 100 |  |  |  |  |  |  |
| COc1cc(Br)c(CC2(C#N)c3ccccc3C3C(N2C(=O)c2ccccc2)C3(Cl)Cl)cc1OC (stereo unspecified) | > 65.5 |  | > 65.5 | > 65.5 | > 65.5 | > 65.5 | > 65.5 |  |  |  |  |  |  |  |  |  |  |  |  |  |
| COc1cc(-c2nc(NC(C)=O)sc2-c2ccnc(NCCNS(=O)(=O)c3ccccc3)n2)ccc1Cl | > 100 | 8.97 | > 100 | 6.01 | > 100 | 32.6 | > 100 |  | 3.81 | > 100 | 4.37 | 6.45 | > 100 | > 100 | 3.09 | 20.9 |  | 6.51 | 2.21 | 2960 |
| CCOC(=O)Cc1nc2ccccc2s1 | 34.3 | 36 | > 100 | > 100 | 49.2 | > 10 | > 100 | 48.1 |  |  |  |  |  |  |  |  |  |  |  |  |
| O=C(O)C1=C(C(=O)Nc2ccccc2)C2C=CC1C2 (stereo unspecified) | > 100 | > 100 | > 100 | > 100 |  | > 100 | > 100 |  |  |  |  |  |  |  |  |  |  |  |  |  |
| CC(C)CC1C(=O)N2CCC[C@H]2C2(O)O[C@](NC(=O)C3C=C4c5cccc6[nH]c(Br)c(c56)C[C@H]4N(C)C3)(C(C)C)C(=O)N12 (stereo partly specified) | > 100 | > 100 | > 100 | > 100 | > 100 | > 100 |  | > 100 |  | > 100 | 9.23 | 11.3 | 8.29 | > 100 | 6.7 |  | 2.81 |  |  | 3210 |
| C#Cc1c(C)c(/C=C/C(C)=C/C=C/C(C)=C/C(=O)OC)n(C)c1C | > 100 |  | > 100 | > 100 |  | > 100 |  | > 100 |  |  |  |  |  |  |  |  |  |  |  |  |
| O=C1OC(c2ccccc2)=N/C1=C\c1ccc2ccccc2c1 | > 100 | > 100 | > 100 | > 100 |  | > 100 |  | > 100 |  |  |  |  |  |  |  |  |  |  |  |  |
| COCc1c(CO)cnc(C)c1OC1OC(CO)C(O)C(O)C1O (stereo unspecified) | > 100 | > 100 | > 100 |  | > 100 | > 100 | > 100 | > 100 |  |  |  |  |  |  |  |  |  |  |  |  |

— PubChem BioAssay (NCI)
